Columns and labels:
[1] = Chemical stability in pH 5.7 buffer at room temperature after 1 day; format: physicochemical; settings: for remaining at 24 h: pH 5.7 buffer, pH 5.7, read-out: Stability
[2] = Chemical stability in pH 5.7 buffer at room temperature after 1 week; format: physicochemical; settings: read-out: Stability
[3] = Chemical stability in pH 5.7 buffer at room temperature after 4 weeks; format: physicochemical; settings: read-out: Stability
[4] = Stability in rabbit corneal homogenate at 37 degC assessed as half life of timolol release; format: ADME, tissue-based, Oryctolagus cuniculus, Cornea; settings: in vitro
[5] = Chemical stability in pH 5.7 buffer at room temperature after 12 weeks; format: physicochemical; settings: read-out: Stability
[6] = Chemical stability in pH 5.7 buffer at room temperature after 8 weeks; format: physicochemical; settings: read-out: Stability
[7] = Vasodilation activity in rabbit aortic rings assessed as relaxation of 3 uM methoxamine-induced contraction in presence of 10 uM guanylate cyclase inhibitor 1H-[1,2,4]oxadiazolo[4,3-a]quinoxalin-1-one; format: functional, tissue-based; settings: Oryctolagus cuniculus, Aorta
[8] = Vasodilation activity in rabbit aortic rings assessed as relaxation of 3 uM methoxamine-induced contraction in absence of guanylate cyclase inhibitor 1H-[1,2,4]oxadiazolo[4,3-a]quinoxalin-1-one; format: functional, tissue-based; settings: Oryctolagus cuniculus, Aorta

COc1cc(OCCO[N+](=O)[O-])ccc1C(=O)O[C@@H](CNC(C)(C)C)COc1nsnc1N1CCOCC1
remaining at 24 h [1]: 98.6%
remaining at 168 h [2]: 96.3%
remaining at 672 h [3]: 84.4%

COc1ccc(CO[N+](=O)[O-])cc1C(=O)O[C@@H](CNC(C)(C)C)COc1nsnc1N1CCOCC1.O=C(O)/C=C\C(=O)O
Stability ([1]; buffer, pH 5.7, 24 h): Unstable
t1/2 [4]: 4.62 h

CC(C)(C)NC[C@@H](COc1nsnc1N1CCOCC1)OC(=O)c1ccccc1OCCO[N+](=O)[O-].O=C(O)/C=C\C(=O)O
remaining at 24 h [1]: 96.5%
remaining at 168 h [2]: 82.5%
t1/2 [4]: 4.3 h

COc1cccc(OCCO[N+](=O)[O-])c1C(=O)O[C@@H](CNC(C)(C)C)COc1nsnc1N1CCOCC1.O=C(O)/C=C\C(=O)O
remaining at 24 h [1]: 99.8%
remaining at 2016 h [5]: 98.3%
remaining at 168 h [2]: 99.3%
remaining at 1344 h [6]: 98.3%
t1/2 [4]: > 23.33 h
remaining at 672 h [3]: 98.3%

COc1cc(COCCO[N+](=O)[O-])ccc1C(=O)O[C@@H](CNC(C)(C)C)COc1nsnc1N1CCOCC1
remaining at 24 h [1]: 96.7%
remaining at 168 h [2]: 94.9%

COc1cc(COC(=O)CCCCCO[N+](=O)[O-])cc(OC)c1C(=O)O[C@@H](CNC(C)(C)C)COc1nsnc1N1CCOCC1.O=C(O)/C=C\C(=O)O
remaining at 24 h [1]: 100%
remaining at 2016 h [5]: 93.2%
remaining at 168 h [2]: 100%
remaining at 1344 h [6]: 96.8%
t1/2 [4]: > 23.33 h
remaining at 672 h [3]: 98%

COc1cc(COC(=O)COCCOCCO[N+](=O)[O-])c(C(=O)O[C@@H](CNC(C)(C)C)COc2nsnc2N2CCOCC2)c(OC)c1.O=C(O)/C=C\C(=O)O
EC50 [7]: 32.7 µM
remaining at 24 h [1]: 98.8%
remaining at 168 h [2]: 93%
EC50 [8]: 15.5 µM
t1/2 [4]: 0.167 h

COc1cccc(C(=O)O[C@@H](CNC(C)(C)C)COc2nsnc2N2CCOCC2)c1OCCO[N+](=O)[O-].O=C(O)/C=C\C(=O)O
remaining at 24 h [1]: 96%
remaining at 168 h [2]: 72.1%
t1/2 [4]: > 23.33 h

COc1cc(COC(=O)CCCO[N+](=O)[O-])c(C(=O)O[C@@H](CNC(C)(C)C)COc2nsnc2N2CCOCC2)c(OC)c1.O=C(O)/C=C\C(=O)O
remaining at 24 h [1]: 96.5%
remaining at 168 h [2]: 96.5%
t1/2 [4]: 0.2 h
remaining at 672 h [3]: 90.6%

COc1cc(COC(=O)C(C)(C)CO[N+](=O)[O-])c(C(=O)O[C@@H](CNC(C)(C)C)COc2nsnc2N2CCOCC2)c(OC)c1.O=C(O)/C=C\C(=O)O
remaining at 24 h [1]: 98.4%
remaining at 2016 h [5]: 93.2%
remaining at 168 h [2]: 99.1%
remaining at 1344 h [6]: 94.9%
t1/2 [4]: 2 h
remaining at 672 h [3]: 94.7%

COc1cc(COC(=O)CCOCC(CO[N+](=O)[O-])O[N+](=O)[O-])c(C(=O)O[C@@H](CNC(C)(C)C)COc2nsnc2N2CCOCC2)c(OC)c1.O=C(O)/C=C\C(=O)O (some centres not stated)
remaining at 24 h [1]: 97.3%
remaining at 2016 h [5]: 86%
remaining at 168 h [2]: 96.7%
remaining at 1344 h [6]: 91.7%
t1/2 [4]: 0.667 h
remaining at 672 h [3]: 95.8%

COc1cc(OCCO[N+](=O)[O-])cc(C)c1C(=O)O[C@@H](CNC(C)(C)C)COc1nsnc1N1CCOCC1.O=C(O)/C=C\C(=O)O
remaining at 24 h [1]: 101%
remaining at 2016 h [5]: 98.5%
remaining at 168 h [2]: 101%
remaining at 1344 h [6]: 99.6%
t1/2 [4]: > 23.33 h
remaining at 672 h [3]: 100%

CC(C)(C)NC[C@@H](COc1nsnc1N1CCOCC1)OC(=O)c1ccc(OCCO[N+](=O)[O-])cc1OCCO[N+](=O)[O-]
remaining at 24 h [1]: 97.9%
remaining at 168 h [2]: 84.2%

COc1cc(COC(=O)CCCCCO[N+](=O)[O-])c(C(=O)O[C@@H](CNC(C)(C)C)COc2nsnc2N2CCOCC2)c(OC)c1.O=C(O)/C=C\C(=O)O
EC50 [7]: 56.3 µM
remaining at 24 h [1]: 99.6%
remaining at 168 h [2]: 99.6%
EC50 [8]: 6.7 µM
remaining at 1344 h [6]: 92.8%
t1/2 [4]: 0.167 h
remaining at 672 h [3]: 97.7%

CC(C)(C)NC[C@@H](COc1nsnc1N1CCOCC1)OC(=O)c1ccccc1
remaining at 24 h [1]: 96%
remaining at 168 h [2]: 74.8%

O=[N+]([O-])O[C@@H]1CO[C@H]2[C@@H]1OC[C@@H]2O [ISOSORBIDE MONONITRATE]
EC50 [7]: > 100 µM
EC50 [8]: 9.6 µM

CC(C)(C)NC[C@H](O)COc1nsnc1N1CCOCC1 [TIMOLOL]
EC50 [7]: 36.5 µM
EC50 [8]: 28.8 µM
